Assay results reported in PubChem BioAssay AID179 (DTP/NCI, 2004).
pEC50, pIC50: −log10 of the molar value. Activity calls are given as the source filed them.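 The calls were made as follows: active = compounds giving half or more protection of infected cells from virus-caused growth loss, again on retest; inactive = the rest.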

Test system: CEM cells HIV-1 protection, formazan growth assay
Assay: NCI AIDS Antiviral Assay
Settings: for pIC50: measured here: growth of uninfected CEM cells
Procedure, shortened: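 Category rules: moderately active means at least 50% protection on retest, and confirmed active means 100% protection reproducibly. The underlying data came from a formazan growth assay in HIV-1-infected CEM cells.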

`COc1cccc(/C=C(\NC(C)=O)c2nc3ccc(Cl)cc3[nH]2)c1` was tested, and the outcome was “inactive”.
`CC[N+](CC)(CCNCC(N)=O)CC(N)=O` was tested, and the pEC50 was under 3.70 and the pIC50 was under 3.70.
`Oc1ccccc1C=Nc1ccccc1N=Cc1ccccc1O` showed a pEC50 of under 5.34 and a pIC50 of under 5.34.
`COc1cc(OC)c2nc(C)c3c(c2c1)SCC3` gave a pEC50 of under 3.70 and a pIC50 of under 3.70.
For `CCOC(=O)CCC(NC(=O)c1ccc(Oc2nc3ccccc3nc2-c2ccccc2)cc1)C(=O)OCC` (stereo not drawn), the pEC50 was under 3.70 and the pIC50 was under 3.70.
`CCOC(=O)CC(C)C1(C(=O)OCC)CCCCC1=O` (stereo not drawn) showed a pEC50 of under 3.48 and a pIC50 of under 3.48.
With `Cn1c(=O)nc2n(-c3ccc(F)c(F)c3)c3ccccc3nc-2c1=O` the outcome was “inactive”.
`CCOc1ccc(N=Nc2ccc3cc(/C(C)=N/NC(=O)/C(C#N)=C\c4ccc(N(CCC#N)CCC#N)cc4)c(=O)oc3c2)cc1` was tested, and the pEC50 was under 3.70 and the pIC50 was under 3.70.
In the case of `CCCCCCCCCCCCCCCCN1c2ccccc2C(C)(C)C12C=Cc1cccc([N+](=O)[O-])c1O2` (stereo not drawn), the pEC50 was under 3.70 and the pIC50 was under 3.70.
For `Nc1ncn2c(n1)nc1ccccc12`, the pEC50 was under 3.70 and the pIC50 was under 3.70.
Work on `Clc1ccc(COC(Cn2ccnc2)c2ccc(Cl)cc2Cl)cc1` (stereo not drawn) yielded a pEC50 of under 3.70 and a pIC50 of 4.46.
`CC(CC(C)(C)[N+](C)(C)C)[N+](C)(C)C` (stereo not drawn) gave a pEC50 of under 3.70 and a pIC50 of under 3.70.
Work on `CCOC(=O)c1nnsc1NN` yielded a pEC50 of under 3.70 and a pIC50 of 3.78.
`O=C1[C@H]2ON(c3ccccc3)C(c3ccccc3Cl)[C@H]2C(=O)N1c1ccc(Cc2ccc(N3C(=O)[C@@H]4ON(c5ccccc5)C(c5ccccc5Cl)[C@@H]4C3=O)cc2)cc1` (stereo partly drawn) gave a pEC50 of under 5.06 and a pIC50 of under 5.06.
Work on `Nc1ncnc2c1ncn2CC(=O)NCCCO` yielded a pEC50 of under 3.70 and a pIC50 of under 3.70.
`COc1ccc(C(c2cc3c(cc2O)OCO3)N2CCOCC2)c(OC)c1` (stereo not drawn) gave a pEC50 of under 4.02 and a pIC50 of 5.10.
In the case of `c1ccc([P+](CCC[P+](c2ccccc2)(c2ccccc2)c2ccccc2)(c2ccccc2)c2ccccc2)cc1`, the pEC50 was under 3.70, the outcome was “inactive” and the pIC50 was 3.87.
Work on `COC(=O)c1cccc(C)c1C1CN=NC12Cc1cc(C)cc(C)c1C2=O` (stereo not drawn) yielded a pEC50 of under 3.70 and a pIC50 of 4.91.
`CC12C=C3CC(OC(=O)c4ccccc4)CCC3(O1)c1ccccc12` (stereo not drawn) showed a pEC50 of under 4.24 and a pIC50 of 4.49.
`Brc1ccc(-c2nnc(-c3nn(-c4ccccc4)c4nc5ccccc5nc34)o2)cc1` gave a pEC50 of under 5.09 and a pIC50 of under 5.09.
`CSc1nc2c(c(=O)n1C)N=C(c1ccc(Cl)cc1)CC(c1ccccc1)N2` (stereo not drawn) was tested, and the pEC50 was under 3.70 and the pIC50 was 4.74.
Compound `CC1(C)OC2COC3([C@@H]4OC(C)(C)O[C@@H]4CO)OC(C)(C)OC3C2O1` (stereo partly drawn) has a pEC50 of under 3.70 and a pIC50 of under 3.70.
In the case of `COC1OC2=CCC3C(=O)NC(=O)C3C2[C@H](OCc2ccccc2)C1OCc1ccccc1` (stereo partly drawn), the outcome was “inactive”.
Work on `Cc1ccc(N=Nc2c(N)nn3cc4c(nc23)CCCCC4)cc1` yielded a pEC50 of under 3.70 and a pIC50 of under 3.70.
Work on `COC1=NCc2ccccc2-c2ccccc21` yielded a pEC50 of under 3.65 and a pIC50 of 3.91.
`CN(C)CCCNC(=O)c1cc(NC(=O)c2cc(NC(=O)c3cc(NC(=O)c4ccc(C(=O)Nc5cc(C(=O)Nc6cc(C(=O)Nc7cc(C(=O)NCCCN(C)C)n(C)c7)n(C)c6)n(C)c5)nc4)cn3C)cn2C)cn1C` gave a pEC50 of 5.27 and a pIC50 of under 4.00.
`COC1(OC)N=C(N)C2(C#N)C(C)CC(=O)N(N(C)C)C12C#N` (stereo not drawn) was tested, and the pEC50 was under 3.70 and the pIC50 was under 3.70.
In the case of `CC1=C2CC[C@]2(C)[C@]23OCC(C)(CC2C1=O)C3O` (stereo partly drawn), the outcome was “inactive”.
With `Clc1ccccc1C1N2CCCCC2[C@@H]2c3[nH]c4ccccc4c3CCN12` (stereo partly drawn) the pEC50 was under 4.30 and the pIC50 was under 4.30.
`CCOCC(/C=N/N=C(N)N)=N\N=C(N)N` was tested, and the pEC50 was under 3.12 and the pIC50 was under 3.12.
`CCCCNC(=O)c1cc(S(=O)(=O)n2cc[nH]c2=O)c(SC)cc1Cl` showed a pEC50 of under 3.70 and a pIC50 of under 3.70.
Work on `CCCCCCCCCCCCCCCCN1CCC2SC3CN(CCCCCCCCCCCCCCCC)CCC3SC2C1` (stereo not drawn) yielded a pEC50 of under 4.00 and a pIC50 of under 4.00.
`O=S(=O)(O)c1cc(O)c(N=NC2S(=O)(=O)OCCOS2(=O)=O)c2ccccc12` showed a pEC50 of under 3.70 and a pIC50 of 4.11.
Work on `COc1cc(CNc2nc3ccc(C(F)(F)F)cc3nc2-c2ccccc2)cc(OC)c1OC` yielded a pEC50 of under 4.95 and a pIC50 of under 4.95.
`C#CCn1c2c(c3ccccc3c1=O)C(=O)c1ccccc1-2` showed a pEC50 of under 4.20 and a pIC50 of under 4.20.
Compound `NC1c2c(Cl)sc(Cl)c2C(=O)C1O` (stereo not drawn) has a pEC50 of under 3.70 and a pIC50 of 4.45.
With `CCC1(CCC#N)CCC(N)=CC1=O` (stereo not drawn) the pEC50 was under 3.70 and the pIC50 was under 3.70.
Work on `CCCCOC(=O)CSSCC(=O)OCCCC` yielded a pEC50 of under 3.70 and a pIC50 of 4.29.
In the case of `O=c1ccc2ccc(O)c(O)c2o1`, the pEC50 was under 2.85 and the pIC50 was 4.18.
For `CC1(C)Oc2ncnc(N)c2C1c1ccccc1` (stereo not drawn), the pEC50 was under 2.99 and the pIC50 was 3.34.
With `COc1cc2nncc(SCc3ccc(Cl)cc3Cl)c2cc1OC` the pEC50 was under 4.25 and the pIC50 was 4.28.
In the case of `C=CCN(N=O)C(=O)N(CCC)CCCCC(NC(C)=O)C(=O)NCc1ccccc1` (stereo not drawn), the outcome was “inactive”.
`O=C1CSC(c2cccc(Cl)c2)N1c1ccc(-n2c(-c3ccccc3)nc3ccccc3c2=O)cc1` (stereo not drawn) was tested, and the pEC50 was under 3.70 and the pIC50 was 3.86.
For `CC(=O)c1c(O)c(C)c(O)c2c1OC1=CC(=O)C(C(C)=O)C(=O)C12C` (stereo not drawn), the pEC50 was under 3.70.
For `CC(C)C1=CC2=CCC3C(C)(COC(=O)COc4ccccc4)CCCC3(C)C2CC1` (stereo not drawn), the pEC50 was under 3.70 and the pIC50 was 4.33.
Compound `COc1ccc(C2C(C#N)=C(O)NC(O)=C2C#N)cc1OC` has a pEC50 of under 3.92 and a pIC50 of under 3.92.
For `Clc1cccc(C2SCc3nc4ccccc4n32)c1Cl` (stereo not drawn), the outcome was “inactive”.
With `CCOC(=O)C(c1c(O)c2ccccc2oc1=O)c1c(O)c2ccccc2oc1=O` the pEC50 was under 3.21 and the pIC50 was 4.19.
For `O=C1c2ccccc2S[C@@H](O)[C@@H]2CCCN12`, the outcome was “inactive”.
For `OC[C@@H](O)[C@H]1NC[C@@H](O)[C@H]1O`, the pEC50 was under 3.70 and the pIC50 was under 3.70.
`COc1cc(C=NC2CCCCC2)cc(OC)c1OC` showed a pEC50 of under 3.74 and a pIC50 of 4.02.
Work on `CCCCNC(=S)Nc1nc(C(=O)NNC(=O)c2ccccc2)cs1` yielded a pEC50 of under 3.70 and a pIC50 of 4.95.
For `Cc1ccc(C(=O)O)cc1NC(=O)c1cc(/C=C/c2ccccc2)[nH]c(=S)n1`, the pEC50 was under 3.62 and the pIC50 was under 3.62.
`CC1=C(C#N)C2(C(=O)N(C)c3ccccc32)C(C#N)=C(C)N1c1ccccc1` was tested, and the pEC50 was under 4.85 and the pIC50 was under 4.85.
With `CCOC(=O)N1CCN(c2c(N)nc(C)[nH]c2=O)CC1` the pEC50 was under 3.70 and the pIC50 was under 3.70.
`CO[C@H]1c2cccc3cccc(c23)[C@@H]1n1[nH]c(=O)n(C(C)(C)C)c1=O` gave a pEC50 of under 3.70 and a pIC50 of under 3.70.
`CCOC(=O)c1ccc(C)c(N=NN(C)C)c1` was tested, and the outcome was “inactive”.
`CSC(SC)=C(C#N)C(N)=S` was tested, and the pEC50 was under 3.70 and the pIC50 was 3.91.
For `Cc1cc2c(cc1C(=O)CCC(=O)O)CC1(C2)Cc2cc(C)c(C(=O)CCC(=O)O)cc2C1`, the pEC50 was under 3.70 and the pIC50 was under 3.70.
`C=CCSS/C=C/CS(=O)CC=C` (stereo not drawn) was tested, and the pEC50 was under 4.09 and the pIC50 was 6.16.
Work on `COc1cccc(Oc2c(O)c3ccc(OC)cc3oc2=O)c1` yielded a pEC50 of under 3.70 and a pIC50 of 3.85.
Compound `O=[N+]([O-])c1cc(Cl)ccc1Sc1ccc(Cl)cc1[N+](=O)[O-]` has a pEC50 of under 3.89 and a pIC50 of under 3.89.
For `Cc1nc(-c2nc(C)c(C(=O)/C=C/c3ccc([N+](=O)[O-])cc3)s2)sc1C(=O)/C=C/c1ccc([N+](=O)[O-])cc1`, the pEC50 was under 4.32 and the pIC50 was under 4.32.
For `NC(N)=NS(=O)(=O)c1ccc(NNc2c3ccccc3nc3ccccc23)cc1`, the pEC50 was under 3.70 and the pIC50 was 5.97.
With `c1ccc2c(c1)c1ccccc1c1nc3c(nc21)CCCC3` the pEC50 was under 3.70 and the pIC50 was under 3.70.
With `Clc1ccc(Nc2nnc(CNc3ccc(-c4nnc(Nc5ccc(Cl)cc5)s4)cc3)s2)cc1` the pEC50 was under 3.70 and the pIC50 was 4.88.
For `Nc1ccccc1C(=O)CCC1C(=O)NC(=S)NC1=O`, the pEC50 was under 5.16 and the pIC50 was under 5.16.
Work on `Cc1cnc2c(Nc3ccc(Cl)cc3)cc(N)nc2n1` yielded a pEC50 of under 3.92 and a pIC50 of 5.35.
With `Cc1ccc2oc(=O)c(-c3ccccc3)nc2c1` the pEC50 was under 4.66 and the pIC50 was under 4.66.
`COc1ccc(C2=CC(=O)CCC2)cc1` was tested, and the pEC50 was under 3.75 and the pIC50 was under 3.75.
`Cn1cnc([N+](=O)[O-])c1Sc1nnc(-c2ccc(Cl)cc2)n1C` was tested, and the pEC50 was under 3.43 and the pIC50 was 5.52.
`CC(=O)c1cccc(C(C)=O)c1N=Cc1ccc(Cl)cc1` was tested, and the pEC50 was under 3.70 and the pIC50 was 4.88.
With `C1=C\SS/C=C\SS/1` the pEC50 was under 3.70 and the pIC50 was 4.64.
For `O=C1c2ccccc2N(O)C1(c1ccccc1)C1CCCC=C1N1CCOCC1` (stereo not drawn), the outcome was “inactive”.
`CC(=O)C(O)N1C(=O)C=CC1=O` (stereo not drawn) gave a pEC50 of under 4.30 and a pIC50 of 5.73.
Work on `COc1cc(CNC2=NCCC2)cc(OC)c1OC` yielded a pEC50 of under 3.70 and a pIC50 of 4.32.
`CS(=O)(=O)c1ccc(-c2cc(-c3ccc(S(C)(=O)=O)cc3)[n+](-c3cc(-c4ccc(S(C)(=O)=O)cc4)c([O-])c(-c4ccc(S(C)(=O)=O)cc4)c3)c(-c3ccc(S(C)(=O)=O)cc3)c2)cc1` showed a pEC50 of under 5.12 and a pIC50 of under 5.12.
`Cc1ccc2c(c1-c1ccccc1)C(=O)OC2` was tested, and the outcome was “inactive”.
With `COC(=O)/C=c1\s/c(=C\C(=O)OC)c2ccccc12` the outcome was “inactive”.
For `O=C(Nc1ccc(Cl)c(Cl)c1)C1C(=O)N(c2ccc(Cl)c(Cl)c2)C(=O)/C1=N\O` (stereo not drawn), the outcome was “inactive”.
`O=C(N=C1C(=O)C2(CCCCC2)C2(N=C(c3ccccc3)OC2=O)C12CCCCC2)c1ccccc1` (stereo not drawn) was tested, and the pEC50 was under 4.56 and the pIC50 was 5.00.
Work on `CCC1(CC)COP(=S)(S)OC1` yielded a pEC50 of under 3.70 and a pIC50 of under 3.70.
Compound `O=C(O)c1ccccc1/C=N\NC1=NCCCCN1` has a pEC50 of under 3.70 and a pIC50 of under 3.70.
Compound `NNC(=O)/C(NC(=O)c1ccccc1)=C(\N)c1ccc(Cl)cc1` has a pEC50 of under 3.55 and a pIC50 of 3.79.
In the case of `COC(=O)C1=C(CS(=O)c2ccccc2[N+](=O)[O-])ON(C)C1c1ccccc1` (stereo not drawn), the outcome was “inactive”.
`N#Cc1ccc(Sc2nc3ccccc3[nH]2)cc1` was tested, and the outcome was “inactive”.
In the case of `COCCN(C(C)=O)C1CCC2(SCCS2)c2[nH]c3ccccc3c21` (stereo not drawn), the pEC50 was under 3.70 and the pIC50 was under 3.70.
For `COC(=O)c1c2c(cc3c1CC1(Cc4cc5c(cc4C1)CCC5)C3)CCC2`, the pEC50 was under 3.70 and the pIC50 was under 3.70.
In the case of `O=S1(=O)OC(c2cc(Br)c(O)c(Br)c2)(c2cc(Br)c(O)c(Br)c2)c2ccccc21`, the outcome was “inactive”.
